How the values were obtained:
A1 adenosine receptor = target: T1, A1 adenosine receptor (Rattus norvegicus, UniProt P25099); test: A1 adenosine receptor binding, isolated rat brain membranes
T1 construct: isolated rat brain membranes; from tissue; host or cells: rat brain membranes
T1 sequence (P25099 1-326): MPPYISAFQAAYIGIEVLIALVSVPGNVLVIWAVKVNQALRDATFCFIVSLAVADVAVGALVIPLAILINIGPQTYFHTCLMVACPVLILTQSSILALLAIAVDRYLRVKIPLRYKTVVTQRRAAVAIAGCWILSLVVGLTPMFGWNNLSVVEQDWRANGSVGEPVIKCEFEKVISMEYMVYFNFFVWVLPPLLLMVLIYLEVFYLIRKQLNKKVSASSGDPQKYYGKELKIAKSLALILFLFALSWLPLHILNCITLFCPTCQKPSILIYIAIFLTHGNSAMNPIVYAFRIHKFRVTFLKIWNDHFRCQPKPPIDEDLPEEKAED

dopaminergic receptors = test: dopaminergic receptor binding
muscarinic receptors = test: muscarinic receptor binding
α1-adrenergic receptors = test: α1-adrenergic receptor binding
α2-adrenergic receptors = test: α2-adrenergic receptor binding
β1-adrenergic receptors = test: β1-adrenergic receptor binding
β2-adrenergic receptors = test: β2-adrenergic receptor binding
serotonergic receptors = test: serotonergic receptor binding
[1] = system: α-aminobuteric acid receptors; test: α-aminobuteric acid receptor binding
[2] = system: isolated-Langendorff perfused rat hearts; test: isolated-Langendorff perfused rat hearts; details: 10^-8 -3×10^-6 M
[3] = system: anesthetized-vagotomized normotensive rats; test: hemodynamics in anesthetized-vagotomized normotensive rats; format: in vivo, rat; details: IV 3 to 300 mg/kg
Experimental: In this procedure the (R)-N-(2,3-dihydro-1H-inden-1-yl)adenosine (B) is administered intravenously (IV) at 3 to 300 mg/kg in anesthetized-vagotomized normotensive rats.

[4] = system: anesthetized normotensive dogs; test: hemodynamics in anesthetized normotensive dogs; format: in vivo, dog; details: IV
Experimental: Such administration is by a method essentially described as follows:
Mongrel dogs of either sex are anesthetized with sodium pentobarbital (30 mg/kg IV) and mechanically ventilated with room air. The left and right femoral veins are cannulated for injection of test compound and maintenance anesthesia (3.5 mg/kg/hr), respectively. Cardiac output is measured by a thermodilution catheter positioned in the pulmonary artery. Left ventricular contractility (dP/dt) is measured by a Millar Mikro-Tip catheter pressure transducer positioned in the left ventricular cavity via the left carotid artery, heart rate, and lead II electrocardiogram are recorded continuously. Each animal is allowed 30 minutes to stabilize and hemodynamic control pressures, cardiac output, and electrocardiographic measurements are recorded. Compounds are dissolved in saline if possible and pH adjusted. If another solvent is required, vehicle control experiments are performed. Test compounds are administered as rising bolus doses usually starting at 0.1 midtherapeutic and increasing in half log doses to 30 X midtherapeutic. All cardiovascular measurements are repeated after each dose.
Agent induced effects on any of the cardiovascular measurements are recorded.

[5] = system: anesthetized dog with propranolol-induced myocardial depression; test: propranolol-induced acute heart failure in the anesthetized dog; format: in vivo; details: B 6 μg/kg/min infusion, A 0.01 to 3.0 mg/kg IV bolus
Experimental: CONT indicates the control before propanolol induced cardiac depression, DEP indicates a stable propanolol depression, and TD indicates administration of the initial test drug, either saline or (R)-N-(2,3-dihydro-1H-inden-1-yl)adenosine (B).
Adult mongrel dogs of either sex are anesthetized with sodium pentobarbital (32 mg/kg) IV, trachea intubated, and ventilated artificially. Anesthesia is maintained by a continuous infusion of sodium pentobarbital (3.0 mg/kg/hr) through a femoral vein cannula. Three additional venous cannulae are used for (1) propranolol infusion, (2) (R)-N-(2,3-dihydro-1H-inden-1-yl)adenosine or saline infusion and (3) bolus injections of either 4,5-dihydro-6-[4-(1H-imidazol-1-yl)phenyl]-3(2H)pyridazinone, hydrochloride salt or saline. Systemic arterial blood pressure, left ventricular contractility (dP/dt), and heart rate are recorded continuously. Cardiac output, measured by thermodilution, is recorded before myocardial depression, when stable myocardial depression is achieved (approximately 30 minutes), and ten minutes following each bolus dose. Following surgical preparation, 30 minutes are allowed for hemodynamic stabilization prior to induction of the myocardial depression. […]

[6] = combination compared with A alone at comparable doses

OC[C@H]1O[C@@H](n2cnc3c(N[C@@H]4CCc5ccccc54)ncnc32)[C@H](O)[C@@H]1O [B, (R)-N-(2,3-dihydro-1H-inden-1-yl)adenosine]
IC50 (A1 adenosine receptor): 30 nM
binding to dopaminergic receptors (dopaminergic receptors): does not significantly bind
binding to muscarinic receptors (muscarinic receptors): does not significantly bind
binding to α1-adrenergic receptors (α1-adrenergic receptors): does not significantly bind
binding to α2-adrenergic receptors (α2-adrenergic receptors): does not significantly bind
binding to β1-adrenergic receptors (β1-adrenergic receptors): does not significantly bind
binding to β2-adrenergic receptors (β2-adrenergic receptors): does not significantly bind
binding to serotonergic receptors (serotonergic receptors): does not significantly bind
binding to α-aminobuteric acid receptors [1]: does not significantly bind
heart rate [2]: decreases
coronary flow ([2]; isolated perfused rat heart): Concentration-dependent increases
heart rate [3]: dose-related decreases
mean arterial blood pressure [3]: dose-related decreases
calculated total peripheral resistance [4]: dose-related decreases
heart rate [4]: dose-related decreases
mean arterial blood pressure [4]: dose-related decreases
pressure volume relationship of the left ventricle (LVEDP vs stroke volume) [5]: did not increase dP/dt, cardiac output, or affect the pressure volume relationship
cardiac output [5, 6]: did not increase
myocardial contractility (dP/dt of left ventricular pressure) [5, 6]: did not increase
